Legend:
Assay type in all cases: biochemical
[1] = molecular target: T1, phenylalanine ammonia lyase 2 (PAL2) (Arabidopsis thaliana, UniProt P45724); test: GC-MS detection of product cinnamic acid in cell-free expression mixture; settings: unpurified E. coli CFPS lysate; control without plasmid
T1 construct: codon-optimised gene in pET28a (NdeI/SalI), made by E. coli cell-free protein synthesis, not purified

[2] = molecular target: T2, phenylacrylic acid decarboxylase (PAD, containing two enzymes Fdc1 and Pad1) (Aspergillus niger, UniProt A2QHE5); test: GC-MS detection of product styrene in cell-free expression mixture; settings: unpurified E. coli CFPS lysate; control without plasmid; Fdc1 coexpressed with Pad1
T2 construct: codon-optimised Fdc1 and Pad1 genes in pET28a, coexpressed by E. coli cell-free protein synthesis, not purified; with Flavin prenyltransferase PAD1, mitochondrial

[3] = molecular target: T3, styrene monooxygenase (SMO, consisting of two subunit enzymes StyA and StyB) (Pseudomonas sp., UniProt O50214); test: GC-MS detection of product styrene oxide in cell-free expression mixture; settings: unpurified E. coli CFPS lysate; control without plasmid; StyA coexpressed with StyB; NADH from lysate
T3 construct: pET28a-StyA and pET28a-StyB coexpressed by E. coli cell-free protein synthesis, two separate chains, not purified; with Styrene monooxygenase StyB (NADH-flavin oxidoreductase component)
T3 sequence (O50214 1-415): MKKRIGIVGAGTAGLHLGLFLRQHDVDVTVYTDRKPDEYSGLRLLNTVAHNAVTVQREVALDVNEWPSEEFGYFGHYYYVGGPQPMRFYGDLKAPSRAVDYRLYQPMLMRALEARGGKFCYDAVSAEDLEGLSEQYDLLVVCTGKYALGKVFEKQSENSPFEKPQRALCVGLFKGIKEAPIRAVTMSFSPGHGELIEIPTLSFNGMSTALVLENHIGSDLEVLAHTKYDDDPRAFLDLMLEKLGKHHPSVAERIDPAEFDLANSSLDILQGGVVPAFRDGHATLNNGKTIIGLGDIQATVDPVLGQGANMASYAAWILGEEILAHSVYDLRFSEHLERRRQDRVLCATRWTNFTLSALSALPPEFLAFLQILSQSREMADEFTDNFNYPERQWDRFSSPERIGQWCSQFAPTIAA

[4] = molecular target: T4, styrene oxide isomerase (StyC, SOI) (Pseudomonas sp. VLB120, UniProt O50216); test: GC-MS detection of product phenylacetaldehyde in cell-free expression mixture; settings: unpurified E. coli CFPS lysate; control without plasmid
T4 construct: gene stdC; codon-optimised gene in pET28a, made by E. coli cell-free protein synthesis, not purified; membrane protein
T4 sequence (O50216 1-169): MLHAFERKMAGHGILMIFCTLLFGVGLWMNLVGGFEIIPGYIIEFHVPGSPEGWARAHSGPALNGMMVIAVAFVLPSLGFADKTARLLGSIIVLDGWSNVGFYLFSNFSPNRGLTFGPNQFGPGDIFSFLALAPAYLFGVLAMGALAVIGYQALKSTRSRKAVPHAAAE

T1 sequence (P45724 whole entry): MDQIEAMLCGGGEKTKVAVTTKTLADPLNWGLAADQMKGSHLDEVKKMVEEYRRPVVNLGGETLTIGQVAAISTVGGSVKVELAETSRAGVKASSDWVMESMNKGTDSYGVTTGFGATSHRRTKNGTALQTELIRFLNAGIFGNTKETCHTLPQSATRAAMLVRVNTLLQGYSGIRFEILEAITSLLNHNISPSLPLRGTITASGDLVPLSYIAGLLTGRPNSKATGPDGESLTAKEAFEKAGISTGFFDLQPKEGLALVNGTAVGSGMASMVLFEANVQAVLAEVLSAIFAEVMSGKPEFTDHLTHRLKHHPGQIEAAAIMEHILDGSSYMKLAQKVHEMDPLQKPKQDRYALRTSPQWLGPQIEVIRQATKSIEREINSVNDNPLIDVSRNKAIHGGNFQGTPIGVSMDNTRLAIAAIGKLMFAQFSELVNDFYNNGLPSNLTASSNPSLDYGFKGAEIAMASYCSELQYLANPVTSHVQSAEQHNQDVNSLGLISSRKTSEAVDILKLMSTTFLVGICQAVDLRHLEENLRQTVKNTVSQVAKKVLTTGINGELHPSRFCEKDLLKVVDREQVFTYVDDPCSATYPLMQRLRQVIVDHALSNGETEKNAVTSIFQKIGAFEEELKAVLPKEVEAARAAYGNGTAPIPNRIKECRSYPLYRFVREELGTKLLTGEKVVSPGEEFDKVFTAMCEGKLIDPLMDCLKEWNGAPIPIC

SMILES: N[C@@H](Cc1ccccc1)C(=O)O [compound 1, L-phenylalanine]
- GC-MS detection of product cinnamic acid in cell-free expression mixture [1]: each target compound was detected by GC-MS

SMILES: O=C(O)/C=C/c1ccccc1 [compound 2, cinnamic acid]
- GC-MS detection of product styrene in cell-free expression mixture [2]: the conversion of cinnamic acid to styrene requires two enzymes Fdc1 and Pad1

SMILES: C=Cc1ccccc1 [compound 3, styrene]
- GC-MS detection of product styrene oxide in cell-free expression mixture [3]: two subunit enzymes StyA and StyB to oxidize styrene to styrene oxide

SMILES: c1ccc(C2CO2)cc1 (stereo not shown) [compound 4, styrene oxide]
- GC-MS detection of product phenylacetaldehyde in cell-free expression mixture [4]: all cell-free expressed enzymes were active to convert their substrates to the corresponding products

From article PMC8355704, “Designing Modular Cell-free Systems for Tunable Biotransformation of L-phenylalanine to Aromatic Compounds” (Frontiers in Bioengineering and Biotechnology, 2021)
